Measurements: patent US7947669B2, “Agent for improving insulin resistance” (Morinaga Milk Industry Co., Ltd., priority 2005, dated 2011)

Key:
Type in all cases: in vivo
[1] = system: AKR mice in which insulin resistance is induced by feeding with a high-fat diet; assay: Level of free fatty acid in serum of high-fat diet AKR mice; details: for Test Sample/Negative sample (free fatty acid): serum free fatty acid relative to negative sample, 60th day, 25 μg/kg oral once a day; for Free fatty acid: serum, fasting, 60th day of oral administration 25 μg/kg of body weight once a day, AKR mice on high-fat diet
Description: Each of 9,19-cyclolanostan-3-ol and 24-methylene-9,19-cyclolanostan-3-ol produced in Preparation Example 3 was dissolved in DMSO, and each concentration was adjusted to 1 μg/ml with distilled water to thereby prepare Test Samples 1 and 2.
These mice were divided into groups, each consisting of 8 mice.

[2] = system: TNF-α; assay: Production quantity of TNF-α of adipose tissues from treated high-fat diet AKR mice (ELISA); details: 60th day, 25 μg/kg oral once a day; for inhibitory effect on the production of TNF-α compared with negative sample: adipose tissue, Tukey-Kramer's test; for TNF-α: culture supernatant of epididymal fat tissue after 1 hour culture
Description: (§1) This example was performed in order to evaluate an effect of the agent for improving insulin resistance of the present invention on production quantities of TNF-α and MCP-1 in each cell of adipose tissue by using AKR mice in which insulin resistance is induced by feeding with a high-fat diet.
(§2) In Example 2, the same Test Samples 1, 2 and the negative sample as those prepared in Example 1 were used.
(§3) These mice were divided into groups, each consisting of 8 mice. […] After 1 hour of the culture, culture supernatants were collected, and concentrations of TNF-α and MCP-1 in the culture supernatants were measured by ELISA method (Biosource).

[3] = system: MCP-1; assay: Production quantity of MCP-1 of adipose tissues from treated high-fat diet AKR mice (ELISA); details: 60th day, 25 μg/kg oral once a day; for inhibitory effect on the production of MCP-1 compared with negative sample: adipose tissue, Tukey-Kramer's test; for MCP-1: culture supernatant of epididymal fat tissue after 1 hour culture
Description: as §1, §2, §3

[4] = system: AKR mice in which insulin resistance is induced by feeding with a high-fat diet; assay: Insulin tolerance test in high-fat diet AKR mice; details: 45th day, 25 μg/kg oral once a day, 4 h fast, human insulin 0.75 U/Kg i.p., up to 60 minutes (FIG. 1)
Description: This example was performed in order to evaluate an enhancing effect of the agent for improving insulin resistance of the present invention on insulin sensitivity by performing an insulin tolerance test using AKR mice in which insulin resistance is induced by feeding with a high-fat diet.
In Example 3, the same Test Samples 1, 2 and the negative sample as those prepared in Examples 1 and 2 were used.
These mice were divided into groups, each consisting of 8 mice. […] In the present example, the insulin tolerance test was performed in such a manner that: the mice were fasted for 4 hours, and were then intraperitoneally administered with 0.75 U/Kg of body weight of a human insulin (Eli Lily and Company); and changes with time in blood glucose level were measured from the initiation of the administration of the insulin to after 60 minutes later.

SMILES	Test Sample/Negative sample (free fatty acid) [1]	Free fatty acid [1]	inhibitory effect on the production of TNF-α compared with negative sample [2]	TNF-α [2]	inhibitory effect on the production of MCP-1 compared with negative sample [3]	MCP-1 [3]	change in blood glucose level after insulin administration [4]
CC(C)CCCC(C)C1CCC2(C)C3CCC4C(C)(C)C(O)CCC45CC35CCC12C (centres unmarked) [Test Sample 1, 9,19-cyclolanostan-3-ol]	81.1%	1.20 ± 0.38 mEq/l	significant inhibitory effects	29.80 ± 2.58 pg/mL	significant inhibitory effects	89.83 ± 6.16 pg/mL	rapid decrease in blood glucose levels
C=C(CCC(C)C1CCC2(C)C3CCC4C(C)(C)C(O)CCC45CC35CCC12C)C(C)C (centres unmarked) [Test Sample 2, 24-methylene-9,19-cyclolanostan-3-ol]	81.1%	1.20 ± 0.25 mEq/l	significant inhibitory effects	33.59 ± 0.59 pg/mL	significant inhibitory effects	99.32 ± 7.80 pg/mL	rapid decrease in blood glucose levels
